Reference: patent US20230116114A1, “COMPOUNDS AND COMPOSITIONS FOR TREATING CNS DISORDERS” (Blue Oak Pharmaceuticals, Inc., priority 2020, published 2023)
Structures can show the parent of a compound that is named as a salt.

Test system: mice
Experiment: SmartCube in vivo neuropharmacological behavioral assay
Conditions: for minimal effective dose: Mus musculus, ip, 0.25 h, dose having 50% or more total activity in SmartCube, i.p., read-out: MED (minimal effective dose); for AD: antidepressant (percent probability) / AG: analgesic (percent probability) / AP: antipsychotic (percent probability) / AX: anxiolytic (percent probability) / CE: cognitive enhancer (percent probability) / HA: hallucinogenic (percent probability) / MS: mood stabilizer (percent probability) / PS (percent probability) / SD: sedative hypnotic (percent probability) / SE: side effects (percent probability) / UN: uncharacterized CNS activity (percent probability) / XG: anxiogenic (percent probability): SmartCube, i.p. 15 min before test, result at the MED
Summary of the method: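 Mice dosed i.p. in NMP (Pharmasolve) 15 min before automated video behavioral testing at several doses (e.g., 0.3-30 mpk). Signatures compared to reference drug classes giving per-class probabilities (0-100); MED is the lowest dose with ≥50% total activity.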

SMILES	minimal effective dose [mg/kg]	AD: antidepressant (percent probability)	AG: analgesic (percent probability)	AP: antipsychotic (percent probability)	AX: anxiolytic (percent probability)	CE: cognitive enhancer (percent probability)	HA: hallucinogenic (percent probability)	MS: mood stabilizer (percent probability)	PS (percent probability)	SD: sedative hypnotic (percent probability)	SE: side effects (percent probability)	UN: uncharacterized CNS activity (percent probability)	XG: anxiogenic (percent probability)
CO[C@@H]1CC[C@H]2c3ccccc3[C@@H]1N2C(C)C (stereo in doubt) [Compound 34, 9-Methoxy-12-(propan-2-yl)-12-azatricyclo[6.3.1.0^2,7]dodeca-2,4,6-triene hydrochloride]	10 to 30	++ (5% ≤ X < 25%)	+ (LOQ ≤ X < 5%)	+ (LOQ ≤ X < 5%)	++ (5% ≤ X < 25%)	+ (LOQ ≤ X < 5%)	+ (LOQ ≤ X < 5%)	+ (LOQ ≤ X < 5%)	+ (LOQ ≤ X < 5%)	+ (LOQ ≤ X < 5%)	+ (LOQ ≤ X < 5%)	++ (5% ≤ X < 25%)	+ (LOQ ≤ X < 5%)
CC(C)N1[C@@H]2C[C@@H](C)C[C@H]1c1ccccc12 [Compound 31, 10-Methyl-12-(propan-2-yl)-12-azatricyclo[6.3.1.0^2,7]dodeca-2,4,6-triene hydrochloride]	1 to 10	++++ (50% ≤ X < 100%)	+ (LOQ ≤ X < 5%)	+ (LOQ ≤ X < 5%)	+ (LOQ ≤ X < 5%)	+ (LOQ ≤ X < 5%)	++ (5% ≤ X < 25%)	+ (LOQ ≤ X < 5%)	++ (5% ≤ X < 25%)	+ (LOQ ≤ X < 5%)	+ (LOQ ≤ X < 5%)	+ (LOQ ≤ X < 5%)	+ (LOQ ≤ X < 5%)
COCC(C)N1C2CCCC1c1ccccc12 (stereo not drawn) [Compound 18, 12-(1-Methoxypropan-2-yl)-12-azatricyclo[6.3.1.0^2,7]dodeca-2,4,6-triene]	10 to 30	++++ (50% ≤ X < 100%)	+ (LOQ ≤ X < 5%)	+ (LOQ ≤ X < 5%)	++ (5% ≤ X < 25%)	+ (LOQ ≤ X < 5%)	+ (LOQ ≤ X < 5%)	+ (LOQ ≤ X < 5%)	+ (LOQ ≤ X < 5%)	+ (LOQ ≤ X < 5%)	+ (LOQ ≤ X < 5%)	+ (LOQ ≤ X < 5%)	+ (LOQ ≤ X < 5%)
